{"source": "patent US20170246227A1", "about": "“COMBINATION COMPRISING SPIRULINA AND PALMITOYLETHANOLAMIDE AND/OR SALTS OR PHARMACEUTICALLY ACCEPTABLE DERIVATIVES THEREOF AND THEIR FORMULATIONS, FOR USE IN THE PREVENTION AND/OR IN THE TREATMENT OF HYPERACTIVATED TISSUE CONDITIONS” (priority 2014, published 2017)", "format_in_all_cases": "in vivo, human", "key": {"[1]": {"system": "patients with peripheral neuropathy of diabetic origin", "experiment": "Clinical study in diabetic peripheral neuropathy: nerve conduction by neurological tuning fork, biothesiometer and Achilles reflex", "conditions": "1 patient each, combination 35% spirulina, 65% PEA", "method": "A clinical study was performed to test the synergistic effect of the combination of spirulina (used as dry extract) and PEA in the treatment of peripheral neuropathy in diabetics.\nIn the study, three patients were treated, comprising both men and women who suffered from peripheral neuropathy of diabetic origin. All the patients presented the classic symptoms of peripheral neuropathy, i.e. the classic symptoms consisting of paraesthesias, the sensation of ‘walking on cotton wool’, insensitivity to heat and/or cold, etc., and all the patients were undergoing specific treatments to control glycaemic values, in particular oral hypoglycaemic agents. The patients' glycaemia was tested, both at the beginning and the end of the study, to see if taking the product influenced glycaemic control in any way. All the patients had mean fasting glycaemia values of approximately 140 to 165 mg/dl. […]"}, "[2]": {"system": "patients suffering from tinnitus", "experiment": "Clinical study of spirulina, PEA and their combination in the treatment of tinnitus", "conditions": "2 patients per group, oral tablets 2x2/day for 5 days then 1x2/day for 10 days; PEA 350 mg and/or spirulina 650 mg per tablet; combination 65% spirulina, 35% PEA", "method": "A clinical study was performed to test the synergistic effect of the combination of spirulina (used as dry extract) and palmitoylethanolamide (PEA) in the treatment of tinnitus.\nIn the study, six patients were treated, comprising both men and women, with a mean age of 49.6 years (person, person, person, person, person, […] women), who had been suffering from tinnitus for at least one year. […]\nThe improvements regarding the tinnitus were declared by patients, while the improvement in hearing was measured via an audiometric test, carried out before and after administration of the combination in the invention. […]"}, "[3]": {"system": "patients with praecordial pain of cardiac origin (angina pectoris)", "experiment": "Clinical study in angina pectoris (chest pain), stress ECG", "conditions": "1 patient each, PEA 300 mg and/or spirulina 700 mg per tablet, combination 70% spirulina, 30% PEA", "method": "A clinical study was performed to test the synergistic effect of the combination of spirulina (used as dry extract) and PEA in the treatment of angina pectoris (chest pain).\nIn the study, three patients were treated, comprising both men and women who suffered from praecordial pain of cardiac origin. Upon undergoing a stress ECG, all the patients presented anginal pain during the stress and all were undergoing specific treatments (antihypertensives, beta blockers), which—nevertheless—were unable to fully control the aforesaid symptoms. […]"}, "[4]": {"system": "diabetic patients with altered renal functions", "experiment": "Clinical study in altered renal functions in diabetics: creatinine value at beginning and end", "method": "A clinical study was performed to test the synergistic effect of the combination of spirulina (used as dry extract) and PEA in the treatment of altered renal functions, preferably in diabetics.\nIn the study, three patients were treated, comprising both men and women who suffered from diabetes. All patients presented altered renal functions, evidenced by the creatinine value, i.e. a creatinine value of over 4 mg/dl (normal values range from 0.7 to 1.3 mg/dl). All the patients were undergoing specific treatments (conventional drugs, such as Decadurabolin, etc.) which, nevertheless, were unable to control the renal dysfunction. The patients' creatinine values were tested, both at the beginning and the end of the clinical study assessment.\nIn accordance with the present invention, the patients were treated according to the following schema: • the first patient was treated with a tablet comprising 650 mg of PEA, administered four times a day, for a daily total of 2,600 mg of PEA, for a duration of 5 days; next, the same patient was treated with one tablet, comprising 650 mg of PEA, administered twice a day, for a daily total of 1,300 mg of PEA, for a duration of 30 days; • the second patient was treated with a tablet comprising 350 mg of spirulina, administered four times a day, for a daily total of 1,400 mg of spirulina, for a duration of 5 days; next, the same patient was treated with one tablet, comprising 350 mg of spirulina, administered twice a day, for a daily total of 700 mg of spirulina, for a duration of 30 days; • next, the third patient was treated with one tablet, comprising 350 mg of spirulina and 650 mg of PEA, administered four times a day, for a daily total of 1,400 mg of spirulina combined with 2,600 mg of PEA, for a duration of 5 days; next, the same patient was treated with one tablet, comprising 350 mg of spirulina and 650 mg of PEA, administered twice a day, for a daily total of 700 mg of spirulina combined with 1,300 mg of PEA, for a duration of 30 days."}, "[5]": {"experiment": "Fasting glycaemia at beginning and end of the diabetic peripheral neuropathy study", "conditions": "1 patient each, 35 days, on oral hypoglycaemic agents; combination 35% spirulina, 65% PEA", "protocol": "In the study, three patients were treated, comprising both men and women who suffered from peripheral neuropathy of diabetic origin. All the patients presented the classic symptoms of peripheral neuropathy, i.e. the classic symptoms consisting of paraesthesias, the sensation of ‘walking on cotton wool’, insensitivity to heat and/or cold, etc., and all the patients were undergoing specific treatments to control glycaemic values, in particular oral hypoglycaemic agents. The patients' glycaemia was tested, both at the beginning and the end of the study, to see if taking the product influenced glycaemic control in any way. […]"}, "[6]": {"system": "patients suffering from age-related macular degeneration", "experiment": "Clinical study in senile macular degeneration, Amsler test before and after treatment", "conditions": "1 patient each, tablet 4x/day for 10 days then 2x/day for 30 days; PEA 450 mg and/or spirulina 550 mg per tablet; combination 55% spirulina, 45% PEA", "method": "A clinical study was performed to test the synergistic effect of the combination of spirulina (used as dry extract) and PEA in the treatment of senile macular degeneration.\nIn the study, three patients were treated, comprising both men and women, who were suffering from age-related macular degeneration with the presence of macular drusen, i.e. localised deposits between the retinal pigment epithelium (RPE) and the Bruch membrane, together with geographic atrophy, characterised by RPE cell death and atrophy of the overlying photoreceptors.\nAll the patients underwent an assessment with the Amsler test, prior to administration of the combination of spirulina and PEA. All three patients presented macular degeneration with distortion (metamorphopsia) or line breaks with an average degree of macular degeneration. […]"}}}
{"smiles": "CCCCCCCCCCCCCCCC(=O)NCCO", "note": "[PEA, Palmitoylethanolamide]", "values": [{"measurement": "nerve conduction assessed with tuning fork and biothesiometer", "setting": "[1]; 35 days", "value": "slight response to the biothesiometry test"}, {"measurement": "neuropathic symptoms / condition", "setting": "[1]; tablet 4x/day for 5 days then 2x/day for 30 days, PEA 650 mg and/or spirulina 350 mg per tablet", "value": "slight improvement in the neuropathic symptoms"}, {"measurement": "change in tinnitus perceived (declared by patients)", "setting": "[2]", "value": "neither the two patients treated with PEA, nor the two patients treated with spirulina showed variations in the tinnitus"}, {"measurement": "praecordial pain of cardiac origin when stress was increased during the stress ECG", "setting": "[3]; 45 days", "value": "presented praecordial pain of cardiac origin"}, {"measurement": "change in condition / capacity to endure the stress ECG versus before administration", "setting": "[3]; tablet 4x/day for 15 days then 2x/day for 30 days, added to treatments already underway", "value": "no significant changes in condition"}, {"measurement": "renal functions", "setting": "[4]; 1 diabetic patient each, tablet 4x/day for 5 days then 2x/day for 30 days, PEA 650 mg and/or spirulina 350 mg per tablet, combination 35% spirulina, 65% PEA", "value": "no improvement in renal functions"}, {"measurement": "creatinine value at the end of the treatment", "setting": "[4]; after 35 days, normal values 0.7 to 1.3 mg/dl, combination 35% spirulina, 65% PEA", "value": 4.4, "unit": "mg/dL"}, {"measurement": "creatinine value at the beginning of the treatment", "setting": "[4]; baseline of the treated patient, normal values 0.7 to 1.3 mg/dl", "value": 4.3, "unit": "mg/dL"}, {"measurement": "glycaemic profile", "setting": "[5]", "value": "without any influence on the glycaemic profile"}, {"measurement": "Amsler test result after treatment", "setting": "[6]", "value": "slight improvement in the Amsler test result"}]}
